From patent publication US7202258B2, “α- and β-amino acid hydroxyethylamino sulfamic acid derivatives useful as retroviral protease inhibitors” (G.D. Searle & Co., priority 1992, dated 2007)
Like-named read-outs stand apart in the source and are kept apart here.

Experiments:
HIV protease = target: T1, HIV protease (Human immunodeficiency virus type 1 group M subtype B, UniProt P04585); test: HIV protease enzyme assay (fluorescence, substrate 2-Ile-Nle-Phe(p-NO2)-Gln-ArgNH2); type: biochemical
T1 construct: HIV protease is diluted in the assay buffer to a final enzyme concentration of 12.3 nanomolar, based on a molecular weight of 10,780
From the text: The compounds of the present invention are effective HIV protease inhibitors. Utilizing an enzyme assay as described below, the compounds set forth in the examples herein disclosed inhibited the HIV enzyme. The preferred compounds of the present invention and their calculated IC50 (inhibiting concentration 50%, i.e., the concentration at which the inhibitor compound reduces enzyme activity by 50%) values are shown in Table 17. The enzyme method is described below. The substrate is 2-Ile-Nle-Phe(p-NO2)-Gln-ArgNH2. The positive control is MVT-101 (Miller, M. et al, Science, 246, 1149 (1989)]The assay conditions are as follows: • Assay buffer: 20 mM sodium phosphate, […] • 20% glycerol • 1 mM EDTA • 1 mM DTT • 0.1% CHAPS
The above described substrate is dissolved in DMSO, then diluted 10 fold in assay buffer. Final substrate concentration in the assay is 80 μM.
HIV protease is diluted in the assay buffer to a final enzyme concentration of 12.3 nanomolar, based on a molecular weight of 10,780.
The final concentration of DMSO is 14% and the final concentration of glycerol is 18%. The test compound is dissolved in DMSO and diluted in DMSO to 10× the test concentration; 10 μl of the enzyme preparation is added, the materials mixed and then the mixture is incubated at ambient temperature for 15 minutes. The enzyme reaction is initiated by the addition of 40 μl of substrate. The increase in fluorescence is monitored at 4 time points (0, 8, 16 and 24 minutes) at ambient temperature. Each assay is carried out in duplicate wells.

HIV-1 = test: microbe, parasite or virus in culture; settings: Human immunodeficiency virus 1, CCRF-CEM, 168 h, read-out: EC50 (nm)
Method: Assays were performed in 96-well tissue culture plates. CEM cells, a CD4^+ cell line, were grown in RPMI-1640 medium (Gibco) supplemented with a 10% fetal calf serum and were then treated with polybrene (2 μg/ml). An 80 μl volume of medium containing 1×10^4 cells was dispensed into each well of the tissue culture plate, no each well was added a 100 μl volume of test compound dissolved in tissue culture medium (or medium without test compound as a control) to achieve the desires final concentration and the cells were incubated at 37° C. for 1 hour. […] HIV-1 was diluted in culture medium to a concentration of 5×10^4 TCID50 per ml (TCID50=the dose of virus that infects 50% of cells in tissue culture), and a 20 μL volume of the virus sample (containing 1000 TCID50 of virus) was added to wells containing test compound and to wells containing only medium (infected control cells). Several wells received culture medium without virus (uninfected control cells). Likewise, the intrinsic toxicity of the test compound was determined by adding medium without virus to several wells containing test compound.
In experiments 2 and 4 the final concentrations of test compounds were 1, 10, 100 and 500 μg/ml. Either azidothymidine (AZT) or dideoxyinosine (ddI) was included as a positive drug control. […] DMSO was added to all control wells at an appropriate concentration.
Following the addition of virus, cells were incubated at 37° C. in a humidified, 5% CO2 atmosphere for 7 days. Test compounds could be added on days 0, 2 and 5 if desired. On day 7, post-infection, the cells in each well were resuspended and a 100 μl sample of each cell suspension was removed for assay. A 20 μL volume of a 5 mg/ml solution of 3-(4,5-dimethylthiazol-2-yl)-2,5-diphenyltetrazolium bromide (MTT) was added to each 100L cell suspension, and the cells were incubated for 4 hours at 27° C. in a 5% CO2 environment. […] To each sample was added 100 μl of 10% sodium dodecylsulfate in 0.01 N HCl to lyse the cells, and samples were incubated overnight. The absorbance at 590 nm was determined for each sample using a Molecular Devices microplate reader. Absorbance values for each set of wells is compared to assess viral control infection, uninfected control cell response as well as test compound by cytotoxicity and antiviral efficacy.

CEM cells = test: Intrinsic toxicity of test compound in uninfected CEM cells (MTT); type: cell-based; settings: human, 7 days
From the text: Methods, 20, 309–321 (1988). […] A Frozen culture c.

[1] = Table 18, compounds of Table 1C, read-out: IC50 or % Inhibition: IC50

Compound | IC50 (HIV protease; [1]) [nM] | IC50 (HIV protease; Table 17, read-out: IC50) [nM] | IC50 (HIV protease) [nM] | EC50 (HIV-1) [nM] | TD50 (nm) (CEM cells)
CC(C)(C)NS(=O)(=O)N(CC1CCCCC1)C[C@@H](O)[C@H](Cc1ccccc1)NC(=O)OCc1ccccc1 [I] | 1700 |  |  |  | 
COc1ccc(COC(=O)NC[C@@H](C)C(=O)N[C@@H](Cc2ccccc2)[C@H](O)CN(CC(C)C)S(=O)(=O)NC(C)(C)C)cc1 [Entry 5] |  | 13 |  |  | 
CC(C)CN(C[C@@H](O)[C@H](Cc1ccccc1)NC(=O)[C@H](CC(N)=O)NC(=O)c1ccc2ccccc2n1)S(=O)(=O)NC(C)(C)C [Entry 4] |  |  | 2 | < 15 | 39,000 nM
COC(=O)C(C)(C)NS(=O)(=O)N(CC(C)C)C[C@@H](O)[C@H](Cc1ccccc1)NC(=O)OCc1ccccc1 [J] | 2690 |  |  |  | 
CC(C)CN(C[C@@H](O)[C@H](Cc1ccccc1)NC(=O)OCc1ccccc1)S(=O)(=O)N1CCCCC1 [G] | 66 |  |  |  | 
CCCCNS(=O)(=O)N(CC(C)C)C[C@@H](O)[C@H](Cc1ccccc1)NC(=O)[C@H](CC(N)=O)NC(=O)c1ccc2ccccc2n1 [Entry 2] |  |  | 5 | 23 | 65,000 nM
CC(C)CN(C[C@@H](O)[C@H](Cc1ccccc1)NC(=O)[C@H](CC(N)=O)NC(=O)c1ccc2ccccc2n1)S(=O)(=O)N1CCN(C)CC1 [Entry 3] |  |  | 3 | 42 | 28,000 nM
CCCCNS(=O)(=O)N(CC(C)C)C[C@@H](O)[C@H](Cc1ccccc1)NC(=O)[C@@H](NC(=O)CN(C)C)C(C)(C)C [Entry 1] |  |  | 40 | 167 | 56,000 nM
